Assay: in vitro
Conditions: human, hela cells, % viability

| Structure (SMILES) | viability at 28.5 h, 10 µM [%] |
| --- | --- |
| CC(=O)NC(c1ccccn1)C1CCCN(C(=O)C(C)(C)C)C1 (centres unmarked) [CBK285101] | 91.6 |
| C[C@@H](Cn1nc2c(cc1=O)CCCC2)NC(=O)c1ccccc1F [CBK284560] | 92.5 |
| Nc1cccc(-c2cc(Nc3ccc(C4CCCCC4)cc3)ncn2)c1 [CBK091191] | 88.8 |
| CCN(CC)C(=O)CN(CCc1ccc(OC)c(OC)c1)C(=O)NCCc1c[nH]c2ccccc12 [CBK158741] | 91.1 |
| O=C(O)c1nsnc1C(=O)O [CBK278311K] | 114 |
| CCNC(=O)CN1CCN(C(=O)C(C)(C)c2cccc(C#N)c2)CC1 [CBK306141] | 96.4 |
| O=S(=O)(Nc1ccc(C(O)(C(F)(F)F)C(F)(F)F)cc1)c1ccccc1Br [CBK062101] | 96.3 |
| Cc1nn(C)cc1-c1cncn1C(C)(C)CN1CCC(C)CC1 [CBK281740] | 108 |
| N#CCCCN1CCCC2(C1)NCCc1c2[nH]c2cc(F)ccc12 (centres unmarked) [CBK039826] | 117 |
| CC(C)S(=O)(=O)n1ccn(-c2ccc3c(c2)OCO3)c1=O [CBK106630] | 90.9 |
| Cc1ccc(O)c(CN[C@@H]2CCC[C@H]2Cc2cc(C)no2)c1 [CBK284936] | 101 |
| Cc1cc(=O)oc2cc(Sc3ccc([N+](=O)[O-])cc3)ccc12 [CBK002954] | 95.7 |
| Cc1ccc(OCc2occc2C(=O)N2CCCC3(CCOC3)C2)cc1 (centres unmarked) [CBK307532] | 89.4 |
| O=C(Nc1cccc(F)c1)c1cc2ccccc2cc1O [CBK016863] | 102 |
| CC(=O)NCCN1CC[C@H]2CN(C(=O)c3cc(C)on3)CC[C@H]2CC1=O [CBK288785] | 103 |
| COCCNC(=O)c1cnc(-c2ccccc2)c(-c2cccnc2)c1 [CBK037515] | 106 |
| CSc1ccc(-c2cn3ccnc3c(Nc3ccccc3)n2)cc1 [CBK066537] | 91.3 |
| Cc1ccc(N(Cc2ccco2)C(=O)c2cccc(S(=O)(=O)N(C)C)c2)cc1 [CBK267578] | 91.6 |
| CN(C)CCCN(Cc1cnn(C)c1)Cc1ccco1 [CBK283039] | 112 |
| CC(=O)Nc1cccc(-n2nnnc2SCCCc2nc3ccccc3o2)c1 [CBK298317] | 85.5 |
| CCC(=O)N1CCC2(CC1)CNC(=O)c1cc(C)ccc1O2 [CBK282468] | 85.2 |
| O=C(CSc1nnc(-c2ccncc2)n1-c1ccccc1)N/N=C/c1coc2ccccc2c1=O [CBK262866] | 101 |

| Structure (SMILES) | viability at 28.5 h, 10 µM [%] |
| --- | --- |
| O=C(c1cccc2ncccc12)N1CC[C@@H](c2ccccc2)[C@H](O)C1 [CBK283716] | 84.3 |
| COC(=O)n1c(=O)oc2ccc(Cl)cc21 [CBK026774] | 101 |
| NCCCNCCOc1ccc(Cl)c(Cl)c1 [CBK268631C] | 111 |
| COc1ccc2oc(=O)c(C(=O)Nc3ccc(C(=O)O)cc3)cc2c1 [CBK262242] | 98.4 |
| Cc1ccc(C2CCCN2C(=O)c2ccc(=O)n(CC(=O)N(C)c3ccccc3)c2)cc1C (centres unmarked) [CBK285653] | 107 |
| CCN(CC)C1=NC(=S)N(C)C(c2ccc(OC)cc2)S1 (centres unmarked) [CBK006804] | 99.3 |
| CNC(=O)CSc1nnc(COc2cccc3ccccc23)n1-c1ccccc1 [CBK266043] | 102 |
| Cc1c(C(=O)Nc2sc3c(c2C(=O)NCc2cccnc2)CCC3)oc2ccccc12 [CBK269491] | 87.8 |
| CCCCCNC(=O)NCCC1=CCCCC1 [CBK043796] | 96.9 |
| O=C(NCCc1cccs1)Nc1ccc(F)c(F)c1 [CBK043951] | 87 |
| Cc1ccnc(SCC(=O)c2cc(C)n(C3CC3)c2C)n1 [CBK304686] | 97.6 |
| Cc1noc(C)c1S(=O)(=O)Nc1c(C(=O)Nc2ccc(F)cc2)[nH]c2ccccc12 [CBK050099] | 119 |
| O=C(O)c1ccc(CNC(=O)c2ccc3c(c2)C(=O)N(CC2CCCO2)C3=O)cc1 (centres unmarked) [CBK264256] | 98.4 |
| CC1CN(C)C(C)CC1OC(=O)C(c1ccccc1)c1ccccc1 (centres unmarked) [CBK087393] | 105 |
| CC1=NNC(=O)C1CCC(=O)N/N=C/C(Br)=C/c1ccccc1 (centres unmarked) [CBK262929] | 100 |
| c1ccc(Cn2cc(-c3cnc(N4CCOCC4)c4nccn34)cn2)cc1 [CBK091289] | 79.7 |
| CCc1c(C)nn(-c2ccccc2Br)c1-c1ccccc1 [CBK016757] | 87.9 |
| COc1ccc([C@H](O)[C@@H]2CCCN(C(=O)OC(C)(C)C)C2)cc1 [CBK284311] | 83.4 |
| O=C1CN=C(N2C(=O)C3C4C=CC(C4)C3C2=O)C(=O)N1 (centres unmarked) [CBK028818] | 89.7 |
| O=C(NCc1ccccn1)C1CCC(Cn2c(=S)[nH]c3ccccc3c2=O)CC1 (centres unmarked) [CBK266645] | 95.6 |
| O=C(O)C1CCCN(C(=O)NCC2COc3ccccc3O2)C1 (centres unmarked) [CBK161342] | 121 |
| O=C(Cn1nnc2ccccc2c1=O)N1CCCC(C(F)(F)F)C1 (centres unmarked) [CBK305900] | 80.5 |

| Structure (SMILES) | viability at 28.5 h, 10 µM [%] |
| --- | --- |
| CS(=O)(=O)N1CC2(CCN(CCO)CC2)c2ccccc21 [CBK126677] | 94.5 |
| CCc1nc(-c2ccc(C)c(S(=O)(=O)N3CCN(c4ccccc4)CC3)c2)no1 [CBK294434] | 98.3 |
| O=C(NCCc1ccc(Cl)cc1)C1(Cc2ccc(-c3ccncc3)cc2)CCOCC1 [CBK285570] | 89 |
| COc1ccc(N2C(=S)N(CC3CCCCC3)[C@H]3[C@H]4OC(=O)[C@H](C[C@H]4O)[C@H]32)cc1 [CBK288939] | 108 |
| CCC(CC(=O)NC1CCCOC1)c1c[nH]c2ccccc12 (centres unmarked) [CBK282521] | 119 |
| OC1(c2ccc(Cl)cc2)CCNCC1 [CBK023044] | 92 |
| CCC(CC)C(=O)N1CCn2c(nnc2-c2cncc(Br)c2)C1 [CBK304409] | 96.1 |
| O=C(NCc1ccco1)c1ccc(-c2ccoc2)nc1 [CBK156279] | 105 |
| O=C1NCC2(C/C=C/CCOc3ccccc31)CCNCC2 [CBK292178] | 104 |
| O=S(=O)(c1ccc(-c2ccc(S(=O)(=O)N3CCCCC3)cc2)cc1)N1CCCCC1 [CBK261257] | 92.2 |
| Cc1ccc(NC(=O)c2cccnc2)c(C(=O)O)c1 [CBK000177] | 103 |
| COc1ccc(Nc2nc(N)nc(CSC(=S)N3CCN(C)CC3)n2)cc1 [CBK265232] | 90.8 |
| c1csc(-c2nccnc2NCCCN2CCOCC2)c1 [CBK036632] | 84.6 |
| COc1ccc(-c2c(C)nc(N)nc2-c2ccc(OC)cc2O)cc1 [CBK288186] | 85.7 |
| Cc1ccc2c(CC(=O)N(C)CCN(C)C)c(C)[nH]c2c1C [CBK282157] | 102 |
| O=C(N/N=C/c1cccc(OC(=O)c2cccc(Br)c2)c1)c1ccncc1 [CBK262249] | 112 |
| COc1ccc(CN2CC[C@@H]3[C@H](C2)[C@@H](c2ccc(F)cc2)CN3C(=O)c2ccccc2)cc1 [CBK286290] | 92.3 |
| CS(=O)(=O)N(Cc1cc2ccccc2nc1O)CC1CCCO1 (centres unmarked) [CBK269517] | 86.1 |
| Cc1[nH]c2ccccc2c1C(=O)CSc1nc(N)cc(=O)[nH]1 [CBK297511] | 103 |
| COc1ccc(CN2CCC(N3CCCCC3)CC2)c(OC)c1 [CBK261848] | 103 |
| COc1nccc(N2CCN(C)C3(CCNC(=O)CC3)C2)c1C#N (centres unmarked) [CBK307676] | 116 |
| Cc1ccc(F)c(CN2CCN(CCO)[C@@H]3CS(=O)(=O)C[C@@H]32)c1 [CBK307699] | 93.6 |

| Structure (SMILES) | viability at 28.5 h, 10 µM [%] |
| --- | --- |
| O=C1NN(c2cccc(Cl)c2)C(=O)/C1=C\c1ccc(-c2ccc3c(c2)C(=O)NC3=O)o1 [CBK262970] | 93.4 |
| Nc1ncc(-c2cccc(-c3ccccc3)c2)nc1N1CCN(CCO)CC1 [CBK063410] | 113 |
| Cc1ccc(C(F)(F)F)cc1NCc1csc(C2CCCO2)n1 (centres unmarked) [CBK305424] | 92.8 |
| N#Cc1ccc(C(=O)N2CCC3(CC2)NC(=O)c2cc(-c4ccoc4)ccc2O3)cc1 [CBK115852] | 88.9 |
| CC#Cc1cn([C@H]2C[C@@H](O)[C@@H](CO)O2)c(=O)nc1N [CBK201257] | 105 |
| O=[N+]([O-])c1ccccc1S(=O)(=O)N1CCN(Cc2cccc(Oc3ccccc3)c2)CC1 [CBK264283] | 98.9 |
| CC(NC(=O)CCC(=O)O)C12CC3CC(CC(C3)C1)C2 (centres unmarked) [CBK287105] | 97.9 |
| Cc1ccc(NC(=O)c2cscn2)c(C)n1 [CBK200297] | 102 |
| Cc1cc(CNC(=O)c2cc3ccccc3oc2=O)c2ccccc2n1 [CBK269834] | 94.2 |
| O=C(NCCN1CCCC1)c1cc2cc(Cl)ccc2[nH]1 [CBK107267] | 88 |
| Cc1cn(CC(=O)N2CCN(C(=O)c3ccco3)CC2)c(=O)[nH]c1=O [CBK144472] | 87.7 |
| CN(C(=O)C1CCN(S(=O)(=O)c2cn(C)cn2)CC1)C(c1ccc(F)cc1)c1ccccn1 (centres unmarked) [CBK060229] | 83.8 |
| CCN(CC)C(=O)CN1CCC(Oc2nccnc2OC2CCCCC2)CC1 [CBK082866T] | 87 |
| CC(=O)Nc1cccc(-c2nccnc2NCC2CC2)c1 [CBK037962] | 90.4 |
| CC(C)C(=O)Nc1cccc(-c2cn3ccsc3n2)c1 [CBK096253] | 67 |
| CCC(CC)CNc1ncnc2ccc(S(C)(=O)=O)cc12 [CBK306495] | 90.9 |
| CSc1nnc(-c2ccc(Br)cc2)o1 [CBK026502] | 91.9 |
| CC(Oc1ccccc1)C(=O)N1CCN(CCO)CC1 (centres unmarked) [CBK267428] | 98.6 |
| COc1cc(CO)cc(I)c1OCC(=O)Nc1ccccc1 [CBK265950] | 112 |
| Cc1ccc(NC(=O)Nc2cc(S(N)(=O)=O)ccc2C)cc1 [CBK093428] | 98.5 |
| O=c1[nH]cnc2c1ncn2[C@H]1C[C@@H](O)[C@@H](CO)O1 [CBK201225] | 99.5 |

Same assay, conditions: human, hela cells, % viability, bulk resorufin, single well

| Structure (SMILES) | viability at 28.5 h, 10 µM [%] |
| --- | --- |
| O=C1NC(=S)NC(=O)C1=NNc1ccccc1C(=O)O [CBK262231] | 99.6 |
| COCCn1cc(C(=O)N(CC(N)=O)C2CCCC2)c2ccccc21 [CBK305802] | 84.1 |

— PMC12040169 (PLOS Biology, 2025)
